Values quoted from earlier work in patent US6780436B1, “Solid oral pharmaceutical formulation of modified release that contains an acid labile benzimidazole compound” (Laboratorios Del Dr. Esteve, SA, priority 1999, dated 2004).

Details: hard gelatin capsules that contain omeprazole pellets with enteric coating; stated 'in general' in the background

Compound: COc1ccc2[nH]c([S+]([O-])Cc3ncc(C)c(OC)c3C)nc2c1 (stereo not shown) [omeprazole, 5-methoxy-2[[(4-methoxy-3,5-dimethyl-2-pyridinyl)methyl]sulphinyl]-1H-benzimidazole]
- time of peak plasma concentration after administration: 2 h
